According to PubChem BioAssay (NCI):
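Five concentrations, 48 hours, 96-well plates. GI50: concentration for 50% inhibition of growth. The concentration for full growth arrest is given as TGI.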

Columns and labels:
Test in all cases: NCI anticancer screen, dose series, 48 h
OVCAR-8 ovarian = test system: OVCAR-8 ovarian
UACC-257 melanoma = test system: UACC-257 melanoma
SN12C renal = test system: SN12C renal
786-0 renal = test system: 786-0 renal
BT-549 breast = test system: BT-549 breast
K-562 leukemia = test system: K-562 leukemia
PC-3 prostate = test system: PC-3 prostate
SF-295 CNS = test system: SF-295 CNS
SNB-75 CNS = test system: SNB-75 CNS
HOP-62 NSCLC = test system: HOP-62 NSCLC
RXF 393 renal = test system: RXF 393 renal
IGROV1 ovarian = test system: IGROV1 ovarian
HS 578T breast = test system: HS 578T breast
SK-MEL-28 melanoma = test system: SK-MEL-28 melanoma
OVCAR-3 ovarian = test system: OVCAR-3 ovarian
MOLT-4 leukemia = test system: MOLT-4 leukemia
SK-MEL-5 melanoma = test system: SK-MEL-5 melanoma
U251 CNS = test system: U251 CNS
SK-OV-3 ovarian = test system: SK-OV-3 ovarian
COLO 205 colon = test system: COLO 205 colon
LOX IMVI melanoma = test system: LOX IMVI melanoma
KM12 colon = test system: KM12 colon
NCI-H460 lung = test system: NCI-H460 lung
HOP-92 NSCLC = test system: HOP-92 NSCLC
UO-31 renal = test system: UO-31 renal
MCF7 breast = test system: MCF7 breast
HCT-116 colon = test system: HCT-116 colon
SF-539 CNS = test system: SF-539 CNS
NCI-H23 lung = test system: NCI-H23 lung
MDA-MB-435 = test system: MDA-MB-435
MALME-3M melanoma = test system: MALME-3M melanoma
T-47D breast = test system: T-47D breast
RPMI-8226 leukemia = test system: RPMI-8226 leukemia
OVCAR-5 ovarian = test system: OVCAR-5 ovarian
SR leukemia = test system: SR leukemia
CCRF-CEM leukemia = test system: CCRF-CEM leukemia
CAKI-1 renal = test system: CAKI-1 renal
M14 melanoma = test system: M14 melanoma
SF-268 CNS = test system: SF-268 CNS
HL-60(TB) leukemia = test system: HL-60(TB) leukemia
TK-10 renal = test system: TK-10 renal
NCI-H522 lung = test system: NCI-H522 lung
HT29 colon = test system: HT29 colon
SK-MEL-2 melanoma = test system: SK-MEL-2 melanoma
NCI/ADR-RES ovarian = test system: NCI/ADR-RES ovarian
A498 renal = test system: A498 renal
ACHN renal = test system: ACHN renal
OVCAR-4 ovarian = test system: OVCAR-4 ovarian
MDA-MB-231 breast = test system: MDA-MB-231 breast
HCT-15 colon = test system: HCT-15 colon
UACC-62 melanoma = test system: UACC-62 melanoma
A549 NSCLC = test system: A549 NSCLC
NCI-H226 lung = test system: NCI-H226 lung
SW-620 colon = test system: SW-620 colon
SNB-19 CNS = test system: SNB-19 CNS
HCC-2998 colon = test system: HCC-2998 colon
DU-145 prostate = test system: DU-145 prostate

SMILES: Clc1nc2ccccc2nc1CI
- GI50 (OVCAR-8 ovarian): 3.42 µM
- TGI (OVCAR-8 ovarian): 12.4 µM
- GI50 (UACC-257 melanoma): 12.9 µM
- TGI (UACC-257 melanoma): 26.2 µM
- GI50 (SN12C renal): 4.15 µM
- TGI (SN12C renal): 15.6 µM
- GI50 (786-0 renal): 3.95 µM
- TGI (786-0 renal): 13.8 µM
- GI50 (BT-549 breast): 6.13 µM
- TGI (BT-549 breast): 18.2 µM
- GI50 (K-562 leukemia): 1.74 µM
- TGI (K-562 leukemia): > 32.5 µM
- GI50 (PC-3 prostate): 8.81 µM
- TGI (PC-3 prostate): 22.5 µM
- GI50 (SF-295 CNS): 18.9 µM
- TGI (SF-295 CNS): 44.9 µM
- GI50 (SNB-75 CNS): 9.39 µM
- TGI (SNB-75 CNS): 30.1 µM
- GI50 (HOP-62 NSCLC): 13.4 µM
- TGI (HOP-62 NSCLC): 30.6 µM
- GI50 (RXF 393 renal): 3.08 µM
- TGI (RXF 393 renal): 11.7 µM
- GI50 (IGROV1 ovarian): 6.47 µM
- TGI (IGROV1 ovarian): 17 µM
- GI50 (HS 578T breast): 12.7 µM
- TGI (HS 578T breast): 77.6 µM
- GI50 (SK-MEL-28 melanoma): 9.31 µM
- TGI (SK-MEL-28 melanoma): 23 µM
- GI50 (OVCAR-3 ovarian): 5.1 µM
- TGI (OVCAR-3 ovarian): 9.66 µM
- GI50 (MOLT-4 leukemia): 1.75 µM
- TGI (MOLT-4 leukemia): 12.2 µM
- GI50 (SK-MEL-5 melanoma): 2.6 µM
- TGI (SK-MEL-5 melanoma): 7.82 µM
- GI50 (U251 CNS): 7.38 µM
- TGI (U251 CNS): 20.8 µM
- GI50 (SK-OV-3 ovarian): 14.3 µM
- TGI (SK-OV-3 ovarian): 30.4 µM
- GI50 (COLO 205 colon): 2.17 µM
- TGI (COLO 205 colon): 4.06 µM
- GI50 (LOX IMVI melanoma): 1.03 µM
- TGI (LOX IMVI melanoma): 3.34 µM
- GI50 (KM12 colon): 18.2 µM
- TGI (KM12 colon): 46.5 µM
- GI50 (NCI-H460 lung): 11 µM
- TGI (NCI-H460 lung): 28.5 µM
- GI50 (HOP-92 NSCLC): 1.81 µM
- TGI (HOP-92 NSCLC): 6.82 µM
- GI50 (UO-31 renal): 2.05 µM
- TGI (UO-31 renal): 5.17 µM
- GI50 (MCF7 breast): 2.79 µM
- TGI (MCF7 breast): 11.9 µM
- GI50 (HCT-116 colon): 1.95 µM
- TGI (HCT-116 colon): 3.95 µM
- GI50 (SF-539 CNS): 2.34 µM
- TGI (SF-539 CNS): 6.27 µM
- GI50 (NCI-H23 lung): 6.38 µM
- TGI (NCI-H23 lung): 25.3 µM
- GI50 (MDA-MB-435): 2.35 µM
- TGI (MDA-MB-435): 6.61 µM
- GI50 (MALME-3M melanoma): 2.2 µM
- TGI (MALME-3M melanoma): 4.52 µM
- GI50 (T-47D breast): 2.5 µM
- TGI (T-47D breast): 6.76 µM
- GI50 (RPMI-8226 leukemia): 4.33 µM
- TGI (RPMI-8226 leukemia): 21.9 µM
- GI50 (OVCAR-5 ovarian): 8.26 µM
- TGI (OVCAR-5 ovarian): 22 µM
- GI50 (SR leukemia): 0.638 µM
- GI50 (CCRF-CEM leukemia): 0.93 µM
- TGI (CCRF-CEM leukemia): 4.99 µM
- GI50 (CAKI-1 renal): 5.65 µM
- TGI (CAKI-1 renal): 13.2 µM
- GI50 (M14 melanoma): 3.32 µM
- TGI (M14 melanoma): 12.6 µM
- GI50 (SF-268 CNS): 5.23 µM
- TGI (SF-268 CNS): 17.9 µM
- GI50 (HL-60(TB) leukemia): 2.86 µM
- TGI (HL-60(TB) leukemia): 18.2 µM
- GI50 (TK-10 renal): 3.94 µM
- TGI (TK-10 renal): 8.7 µM
- GI50 (NCI-H522 lung): 1.77 µM
- TGI (NCI-H522 lung): 3.58 µM
- GI50 (HT29 colon): 3.93 µM
- TGI (HT29 colon): 13.5 µM
- GI50 (SK-MEL-2 melanoma): 5.43 µM
- TGI (SK-MEL-2 melanoma): 19.4 µM
- GI50 (NCI/ADR-RES ovarian): 4.1 µM
- TGI (NCI/ADR-RES ovarian): 18.1 µM
- GI50 (A498 renal): 20.5 µM
- TGI (A498 renal): 42.9 µM
- GI50 (ACHN renal): 1.78 µM
- TGI (ACHN renal): 3.27 µM
- GI50 (OVCAR-4 ovarian): 5.34 µM
- TGI (OVCAR-4 ovarian): 18.3 µM
- GI50 (MDA-MB-231 breast): 3.14 µM
- TGI (MDA-MB-231 breast): 9.08 µM
- GI50 (HCT-15 colon): 2.41 µM
- TGI (HCT-15 colon): 6.46 µM
- GI50 (UACC-62 melanoma): 4.32 µM
- TGI (UACC-62 melanoma): 16.5 µM
- GI50 (A549 NSCLC): 19.2 µM
- TGI (A549 NSCLC): 38.6 µM
- GI50 (NCI-H226 lung): 2.67 µM
- TGI (NCI-H226 lung): 8.24 µM
- GI50 (SW-620 colon): 2.57 µM
- TGI (SW-620 colon): 6.87 µM
- GI50 (SNB-19 CNS): 16.2 µM
- TGI (SNB-19 CNS): 37.4 µM
- GI50 (HCC-2998 colon): 19.1 µM
- TGI (HCC-2998 colon): 35.9 µM
- GI50 (DU-145 prostate): 17.1 µM
- TGI (DU-145 prostate): 30.8 µM
